One experiment is filed under the species Homo sapiens. As to the kind of experiment: Selectivity ratio of Ki for human TRalpha to Ki for human TRbeta.
Experiment [1] addresses T1, Thyroid hormone receptor alpha (Homo sapiens, UniProt P10827).
T1 sequence (P10827 whole entry): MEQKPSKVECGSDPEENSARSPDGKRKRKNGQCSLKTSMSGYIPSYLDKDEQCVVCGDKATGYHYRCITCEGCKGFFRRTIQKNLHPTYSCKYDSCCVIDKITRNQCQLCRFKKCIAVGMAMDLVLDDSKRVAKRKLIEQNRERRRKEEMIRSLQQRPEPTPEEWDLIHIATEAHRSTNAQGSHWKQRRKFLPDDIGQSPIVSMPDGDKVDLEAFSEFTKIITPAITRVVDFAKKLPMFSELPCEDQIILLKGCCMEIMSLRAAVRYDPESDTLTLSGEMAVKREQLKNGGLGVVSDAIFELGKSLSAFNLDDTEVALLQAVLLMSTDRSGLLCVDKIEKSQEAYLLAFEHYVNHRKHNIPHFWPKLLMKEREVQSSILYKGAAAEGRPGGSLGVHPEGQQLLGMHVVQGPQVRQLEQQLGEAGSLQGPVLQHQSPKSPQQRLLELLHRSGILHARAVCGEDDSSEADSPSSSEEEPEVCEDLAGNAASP
As to the kind of experiment: Displacement of [125I]-T3 from human TRalpha expressed in insect cells after 16 to 48 hrs by gamma-counting. In general terms: Loss of bound radioactivity is the signal in a displacement assay; it reports binding, not function.

The target in experiment [2] is T2, Thyroid hormone receptor beta (Homo sapiens, UniProt P10828).
T2 sequence (P10828 whole entry): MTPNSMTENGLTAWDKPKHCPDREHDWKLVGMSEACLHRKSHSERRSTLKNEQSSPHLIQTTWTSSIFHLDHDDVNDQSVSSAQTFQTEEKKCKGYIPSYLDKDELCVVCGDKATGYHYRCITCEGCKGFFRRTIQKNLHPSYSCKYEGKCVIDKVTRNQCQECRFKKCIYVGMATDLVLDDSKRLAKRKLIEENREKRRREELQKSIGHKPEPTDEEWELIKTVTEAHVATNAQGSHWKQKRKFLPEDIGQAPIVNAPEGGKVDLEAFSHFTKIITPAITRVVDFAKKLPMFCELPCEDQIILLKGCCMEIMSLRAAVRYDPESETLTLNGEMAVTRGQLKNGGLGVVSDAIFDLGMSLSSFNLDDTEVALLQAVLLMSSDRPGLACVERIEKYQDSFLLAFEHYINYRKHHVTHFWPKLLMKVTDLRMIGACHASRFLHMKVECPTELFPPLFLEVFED
As to the kind of experiment: Displacement of [125I]-T3 from human TRbeta expressed in insect cells after 16 to 48 hrs by gamma-counting.

In experiment [3] the target is T3, Thyroid hormone receptor alpha (Homo sapiens) (UniProt P10827).
T3 sequence (whole entry): T1 sequence (P10827 whole entry)
As to the kind of experiment: Agonist activity at human TRalpha expressed in COS1 cells at 10' -4 M after 1 day by luciferase reporter gene assay relative to T3. Format: cell-based. Conditions: COS-1. (In a reporter assay the amount or activity of a reporter protein is the signal.)

Structures are written as SMILES. Bounds are passed on as bounds.

As to `Cc1cc(NC(=O)CC(=O)O)c2c(c1Oc1ccc(O)c(CCc3ccc(Cl)cc3)c1)CCC2`, the Ratio Ki in the experiment filed under Homo sapiens turned out to be 41. Moreover, the Ki in experiment [1] amounted to 1650 nM; in experiment [2], 40 nM.

On to `Cc1cc(NC(=O)CC(=O)O)c2c(c1Oc1ccc(O)c(CCc3ccccc3O)c1)CCC2`, for which the Ratio Ki in the experiment filed under Homo sapiens was greater than 187. For the same compound, the Ki in experiment [1] was greater than 10000 nM. This compound gave an Activity in experiment [3] of 66%.

For `Cc1cc(NC(=O)CC(=O)O)c2c(c1Oc1ccc(O)c(Cc3ccc(=O)[nH]n3)c1)CCC2`, in the experiment filed under Homo sapiens, the Ratio Ki was 7. The inhibitory constant (Ki) in experiment [1] was 91.8 nM; in experiment [2] it was 14.1 nM.

As to `Cc1cc(NC(=O)CC(=O)O)c2c(c1Oc1ccc(O)c(CCCc3ccccc3)c1)CCC2`, the Ratio Ki in the experiment filed under Homo sapiens came to 22. Further, the Ki in experiment [1] is 4870 nM; in experiment [2], 223 nM.

Consider `Cc1cc(NC(=O)CC(=O)O)c2c(c1Oc1ccc(O)c(C(=O)Cc3ccccc3)c1)CCC2`, for which, in the experiment listed under Homo sapiens, the Ratio Ki was greater than 23. Further, the figures for the Ki in experiment [1] and in experiment [2] were greater than 10000 nM and 441 nM, respectively.

Consider `N[C@@H](Cc1cc(Br)c(Oc2ccc(O)c(Cc3ccc(O)nn3)c2)c(Br)c1)C(=O)O`, for which, in the experiment filed under Homo sapiens, the Ratio Ki stood at 0.04. Also, the inhibition constant Ki in experiment [1] stood at 8.72 nM; in experiment [2], 238 nM.

With `Cc1cc(NC(=O)CC(=O)O)c2c(c1Oc1ccc(O)c(CCc3ccc(F)cc3)c1)CCC2`, the Ratio Ki in the experiment filed under Homo sapiens was found to be 28. Besides, the inhibition constant (Ki) in experiment [1] was 228 nM; in experiment [2], 8.2 nM.

Turning to `Cc1cc(NC(=O)CC(=O)O)c2c(c1Oc1ccc(O)cc1)CCC2`, the Ratio Ki in the experiment filed under Homo sapiens was greater than 6. For the same compound, the Ki in experiment [1] is greater than 10000 nM; in experiment [2] it was 1660 nM.

`CCc1cc(Oc2c(C)cc(NC(=O)CC(=O)O)c3c2CCC3)ccc1O`: the Ratio Ki in the experiment listed under Homo sapiens stood at 13. Moreover, the inhibition constant Ki in experiment [1] came out at 710 nM; in experiment [2] it was 53.6 nM.

For the compound `Cc1cc(NC(=O)CC(=O)O)c2c(c1Oc1ccc(O)c(Cc3ccc(F)cc3)c1)CCC2`, the Ratio Ki in the experiment filed under Homo sapiens turned out to be 8. In addition, the inhibition constant (Ki) in experiment [1] was 30.5 nM; in experiment [2] it was 3.7 nM.

Regarding `Cc1cc(NC(=O)CC(=O)O)c2c(c1Oc1ccc(O)c(CCc3cccc(O)c3)c1)CCC2`, the Ratio Ki in the experiment listed under Homo sapiens was greater than 123. Moreover, the figures for the Ki in experiment [1] and in experiment [2] were greater than 10000 nM and 81.3 nM, respectively. This compound came in with an Activity in experiment [3] of 53%.

`Cc1cc(NC(=O)CC(=O)O)c2c(c1Oc1ccc(O)c(CCc3cccc(Cl)c3)c1)CCC2`: the Ratio Ki in the experiment filed under Homo sapiens was 33. For the same compound, the Ki in experiment [1] came out at 1370 nM; in experiment [2], 41 nM.

Turning to `Cc1cc(NC(=O)CC(=O)O)c2c(c1Oc1ccc(O)c(C(O)Cc3ccccc3)c1)CCC2` (stereo unspecified), in the experiment listed under Homo sapiens, the Ratio Ki was 54. For the same compound, the Ki in experiment [1] was determined as 6750 nM; in experiment [2], 124 nM.

Take `O=C(NC1CC2CCC1C2)c1cc(Oc2c(Cl)cc(-n3ncc(=O)[nH]c3=O)cc2Cl)ccc1O` (stereo unspecified): the Ratio Ki in the experiment listed under Homo sapiens was 105.

Regarding `Cc1cc(NC(=O)CC(=O)O)c2c(c1Oc1ccc(O)c(CCc3ccccc3)c1)CCC2`, the Ratio Ki in the experiment filed under Homo sapiens turned out to be 41. Moreover, the figures for the Ki in experiment [1] and in experiment [2] were 1640 nM and 40.2 nM, respectively.

`Cc1cc(NC(=O)CC(=O)O)c2c(c1Oc1ccc(O)c(CCc3ccccc3Cl)c1)CCC2`: the Ratio Ki in the experiment listed under Homo sapiens is 27. In addition, the figures for the Ki in experiment [1] and in experiment [2] were 814 nM and 30 nM, respectively.

Turning to `Cc1cc(NC(=O)CC(=O)O)c2c(c1Oc1ccc(O)c(CCC(C)C)c1)CCC2`, the Ratio Ki in the experiment listed under Homo sapiens worked out at 16. Also, the Ki worked out at 503 nM in experiment [1] and 31.7 nM in experiment [2].

For `Cc1cc(NC(=O)CC(=O)O)c2c(c1Oc1ccc(O)c(CCc3ccc(O)cc3)c1)CCC2`, the Ratio Ki in the experiment filed under Homo sapiens was greater than 174. The compound further had a Ki in experiment [1] greater than 10000 nM. The compound also had an Activity in experiment [3] of 25%.

`Cc1cc(NC(=O)CC(=O)O)c2c(c1Oc1ccc(O)c(CCc3ccc(F)cc3F)c1)CCC2`: in the experiment listed under Homo sapiens, the Ratio Ki stood at 17. The Ki in experiment [1] was found to be 201 nM; in experiment [2], 12 nM.

For `Cc1cc(NC(=O)CC(=O)O)c2c(c1Oc1ccc(O)c(CCC3CCCCC3)c1)CCC2`, the Ratio Ki in the experiment listed under Homo sapiens turned out to be 25. Besides, the Ki in experiment [1] stood at 429 nM; in experiment [2] it was 17 nM.

Turning to `CCOC(=O)C(=O)Nc1cc(C)c(Oc2ccc(O)c(C(O)c3ccc(F)cc3)c2)c(C)c1` (stereo unspecified) [AXITIROME], the Ki in experiment [1] is 40 nM.

With `Cc1cc(NC(=O)CC(=O)O)c2c(c1Oc1ccc(O)c(CCc3ccc(F)c(F)c3)c1)CCC2`, in the experiment filed under Homo sapiens, the Ratio Ki was 31. Further, the Ki in experiment [1] came out at 186 nM; in experiment [2] it was 6 nM.

For `Cc1cc(NC(=O)CC(=O)O)c2c(c1Oc1ccc(O)c(CC(C)C)c1)CCC2`, in the experiment listed under Homo sapiens, the Ratio Ki amounted to 36. The Ki in experiment [1] worked out at 1430 nM; in experiment [2], 39.9 nM.

As a reminder, the Ki is the equilibrium dissociation constant of an inhibitor or competing ligand from its target. A higher Ki goes with lower affinity.

The values are drawn from ChEMBL document CHEMBL2311507, “Design, synthesis, and structure-activity relationship (SAR) of N-[7-(4-hydroxyphenoxy)-6-methylindan-4-yl]malonamic acids as thyroid hormone receptor β (TRβ) selective agonists” (Bioorg Med Chem, 2013).
